These are literature values, as cited in patent US6342488B1, “Phosphonorisperidone and sulforisperidone compositions and methods” (priority 1998, dated 2002).

Each structure is given as a SMILES string.

For the series the following is noted: condition associated with torsades de pointes.

`Cc1nc2n(c(=O)c1CCN1CCC(c3noc4cc(F)ccc34)CC1)CCCC2` [risperidone, Risperidone]: the “prolongation of QT interval” value is “implicated in a prolongation of QT interval”. For the compound `Cc1nc2n(c(=O)c1CCN1CCC(c3noc4cc(F)ccc34)CC1)CCCC2O` (centres unmarked) [hydroxyrisperidone, 9-hydroxyrisperidone], the “prolongation of QT interval” value is recorded as “implicated in a prolongation of QT interval”.
